# Measurements from patent US20240368135A1 (VERTEX PHARMACEUTICALS INCORPORATED, priority 2021, published 2024).
# Molecular target: human NaV 1.8 (Homo sapiens, UniProt Q9Y5Y9)
# Experiment: E-VIPR assay detecting and measuring NaV inhibition properties
# Format: cell-based
# Settings: HEK cells expressing truncated human NaV 1.8; no human serum; read-out: IC50 in the E-VIPR Assay
# Method in brief: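 Membrane potential was followed by coumarin/oxonol FRET during electrical field stimulation of matrigel-seeded HEK cells carrying truncated human NaV1.8 plus KIR2.1. Dosing used 11 points, 3-fold steps, top 300 nM final, 0.625% DMSO, with or without 25% human serum.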
# human NaV 1.8, sequence (Q9Y5Y9 126-399 limits assumed): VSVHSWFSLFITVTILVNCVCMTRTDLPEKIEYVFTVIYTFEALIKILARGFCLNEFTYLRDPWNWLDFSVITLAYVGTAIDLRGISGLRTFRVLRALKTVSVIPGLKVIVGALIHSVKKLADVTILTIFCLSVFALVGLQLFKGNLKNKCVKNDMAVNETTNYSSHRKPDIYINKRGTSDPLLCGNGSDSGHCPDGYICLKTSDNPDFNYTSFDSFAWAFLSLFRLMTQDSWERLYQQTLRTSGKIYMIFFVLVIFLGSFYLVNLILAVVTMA
# human NaV 1.8, sequence (Q9Y5Y9 660-890 limits assumed): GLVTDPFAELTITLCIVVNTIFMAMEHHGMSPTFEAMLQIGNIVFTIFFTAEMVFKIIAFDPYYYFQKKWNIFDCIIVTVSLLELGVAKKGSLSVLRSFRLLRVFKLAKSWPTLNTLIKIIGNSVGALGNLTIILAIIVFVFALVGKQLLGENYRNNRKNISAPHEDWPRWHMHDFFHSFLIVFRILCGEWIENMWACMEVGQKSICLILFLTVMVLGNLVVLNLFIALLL
# human NaV 1.8, sequence (Q9Y5Y9 1148-1722 limits assumed): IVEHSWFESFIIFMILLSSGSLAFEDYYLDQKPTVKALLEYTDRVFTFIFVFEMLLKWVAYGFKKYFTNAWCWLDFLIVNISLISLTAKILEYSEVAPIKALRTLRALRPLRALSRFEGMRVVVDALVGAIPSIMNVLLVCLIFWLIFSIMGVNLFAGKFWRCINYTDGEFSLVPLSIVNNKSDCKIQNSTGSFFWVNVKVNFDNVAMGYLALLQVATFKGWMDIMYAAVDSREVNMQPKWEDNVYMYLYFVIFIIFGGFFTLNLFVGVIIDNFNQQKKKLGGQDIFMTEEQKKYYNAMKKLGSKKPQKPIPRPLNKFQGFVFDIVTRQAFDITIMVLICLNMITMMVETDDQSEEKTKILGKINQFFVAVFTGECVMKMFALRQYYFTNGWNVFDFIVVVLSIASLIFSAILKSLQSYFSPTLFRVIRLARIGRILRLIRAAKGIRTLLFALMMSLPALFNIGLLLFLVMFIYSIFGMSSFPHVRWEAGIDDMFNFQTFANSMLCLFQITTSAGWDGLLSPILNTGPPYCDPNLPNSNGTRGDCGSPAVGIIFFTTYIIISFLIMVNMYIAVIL
row,SMILES,IC50
1,"COc1c([C@H]2[C@H](C(=O)Nc3ccc(C(=O)NC#N)nc3)O[C@@](C)(C(F)(F)F)[C@H]2C)ccc(F)c1F [Compound 373, N-cyano-5-[[(2R,3S,4S,5R)-3-(3,4-difluoro-2-methoxy-phenyl)-4,5-dimethyl-5-(trifluoromethyl)tetrahydrofuran-2-carbonyl]amino]pyridine-2-carboxamide]",100 to 1000 nM
2,"COc1c([C@H]2[C@H](C(=O)Nc3ccc(C(=O)NS(C)(=O)=O)nc3)O[C@@](C)(C(F)(F)F)[C@H]2C)ccc(F)c1F [Compound 375, 5-[[(2R,3S,4S,5R)-3-(3,4-difluoro-2-methoxy-phenyl)-4,5-dimethyl-5-(trifluoromethyl)tetrahydrofuran-2-carbonyl]amino]-N-methylsulfonyl-pyridine-2-carboxamide]",100 to 1000 nM
3,"COc1c([C@H]2[C@H](C(=O)Nc3cncc(S(=O)(=O)N4CCN(C)CC4)c3)O[C@@](C)(C(F)(F)F)[C@H]2C)ccc(F)c1F [Compound 380, (2R,3S,4S,5R)-3-(3,4-difluoro-2-methoxyphenyl)-4,5-dimethyl-N-(5-((4-methylpiperazin-1-yl)sulfonyl)pyridin-3-yl)-5-(trifluoromethyl)tetrahydrofuran-2-carboxamide]",10 to 100 nM
4,"COc1c([C@H]2[C@H](C(=O)Nc3ccnc(CO)n3)O[C@@](C)(C(F)(F)F)[C@H]2C)ccc(F)c1F [Compound 381, (2R,3S,4S,5R)-3-(3,4-difluoro-2-methoxyphenyl)-N-(2-(hydroxymethyl)pyrimidin-4-yl)-4,5-dimethyl-5-(trifluoromethyl)tetrahydrofuran-2-carboxamide]",10 to 100 nM
5,"COc1c([C@H]2[C@H](C(=O)Nc3cncc(CO)n3)O[C@@](C)(C(F)(F)F)[C@H]2C)ccc(F)c1F [Compound 382, (2R,3S,4S,5R)-3-(3,4-difluoro-2-methoxyphenyl)-N-(6-(hydroxymethyl)pyrazin-2-yl)-4,5-dimethyl-5-(trifluoromethyl)tetrahydrofuran-2-carboxamide]",100 to 1000 nM
6,"COc1c([C@H]2[C@H](C(=O)Nc3cncc(CO)c3)O[C@@](C)(C(F)(F)F)[C@H]2C)ccc(F)c1F [Compound 383, (2R,3S,4S,5R)-3-(3,4-difluoro-2-methoxyphenyl)-N-(5-(hydroxymethyl)pyridin-3-yl)-4,5-dimethyl-5-(trifluoromethyl)tetrahydrofuran-2-carboxamide]",10 to 100 nM
7,"CNc1cc(NC(=O)[C@@H]2O[C@@](C)(C(F)(F)F)[C@@H](C)[C@H]2c2ccc(F)c(F)c2OC)ccn1 [Compound 387, (2R,3S,4S,5R)-3-(3,4-difluoro-2-methoxyphenyl)-4,5-dimethyl-N-(2-(methylamino)pyridin-4-yl)-5-(trifluoromethyl)tetrahydrofuran-2-carboxamide]",10 to 100 nM
8,"COc1c([C@H]2[C@H](C(=O)Nc3cnc4nncn4c3)O[C@@](C)(C(F)(F)F)[C@H]2C)ccc(F)c1F [Compound 388, (2R,3S,4S,5R)-N-([1,2,4]triazolo[4,3-a]pyrimidin-6-yl)-3-(3,4-difluoro-2-methoxyphenyl)-4,5-dimethyl-5-(trifluoromethyl)tetrahydrofuran-2-carboxamide]",10 to 100 nM
9,"COc1c([C@H]2[C@H](C(=O)Nc3cc(C(C)(C)O)ncn3)O[C@@](C)(C(F)(F)F)[C@H]2C)ccc(F)c1F [Compound 389, (2R,3S,4S,5R)-3-(3,4-difluoro-2-methoxy-phenyl)-N-[6-(1-hydroxy-1-methyl-ethyl)pyrimidin-4-yl]-4,5-dimethyl-5-(trifluoromethyl)tetrahydrofuran-2-carboxamide]",10 to 100 nM
10,"COc1c([C@H]2[C@H](C(=O)Nc3cnc(C(C)(C)O)nc3)O[C@@](C)(C(F)(F)F)[C@H]2C)ccc(F)c1F [Compound 390, (2R,3S,4S,5R)-3-(3,4-difluoro-2-methoxyphenyl)-N-(2-(2-hydroxypropan-2-yl)pyrimidin-5-yl)-4,5-dimethyl-5-(trifluoromethyl)tetrahydrofuran-2-carboxamide]",10 to 100 nM
11,"COc1c([C@H]2[C@H](C(=O)Nc3ccc(N4CCN(C)CC4=O)nc3)O[C@@](C)(C(F)(F)F)[C@H]2C)ccc(F)c1F [Compound 391, (2R,3S,4S,5R)-3-(3,4-difluoro-2-methoxyphenyl)-4,5-dimethyl-N-(6-(4-methyl-2-oxopiperazin-1-yl)pyridin-3-yl)-5-(trifluoromethyl)-tetrahydrofuran-2-carboxamide]",100 to 1000 nM

# More lines, now with the values ahead:
row,IC50,SMILES
1,10 to 100 nM,"COc1c([C@H]2[C@H](C(=O)Nc3ccc(C(=O)N(C)O)nc3)O[C@@](C)(C(F)(F)F)[C@H]2C)ccc(F)c1F [Compound 374, 5-[[(2R,3S,4S,5R)-3-(3,4-difluoro-2-methoxy-phenyl)-4,5-dimethyl-5-(trifluoromethyl)tetrahydrofuran-2-carbonyl]amino]-N-hydroxy-N-methyl-pyridine-2-carboxamide]"
2,10 to 100 nM,"COc1c([C@H]2[C@H](C(=O)Nc3ccc(C(=O)N(C)S(C)(=O)=O)nc3)O[C@@](C)(C(F)(F)F)[C@H]2C)ccc(F)c1F [Compound 376, 5-[[(2R,3S,4S,5R)-3-(3,4-difluoro-2-methoxy-phenyl)-4,5-dimethyl-5-(trifluoromethyl)tetrahydrofuran-2-carbonyl]amino]-N-methyl-N-methylsulfonyl-pyridine-2-carboxamide]"
3,< 10 nM,"COc1c([C@H]2[C@H](C(=O)Nc3ccnc(C(O)CN(C)C)c3)O[C@@](C)(C(F)(F)F)[C@H]2C)ccc(F)c1F (stereo partly drawn) [Compound 378, (2R,3S,4S,5R)-3-(3,4-difluoro-2-methoxy-phenyl)-N-[2-[2-(dimethylamino)-1-hydroxy-ethyl]-4-pyridyl]-4,5-dimethyl-5-(trifluoromethyl)tetrahydrofuran-2-carboxamide]"
4,< 10 nM,"COc1c([C@H]2[C@H](C(=O)Nc3ccnc(N4CCN(C)CC4=O)c3)O[C@@](C)(C(F)(F)F)[C@H]2C)ccc(F)c1F [Compound 379, (2R,3S,4S,5R)-3-(3,4-difluoro-2-methoxyphenyl)-4,5-dimethyl-N-(2-(4-methyl-2-oxopiperazin-1-yl)pyridin-4-yl)-5-(trifluoromethyl)tetrahydrofuran-2-carboxamide]"
5,< 10 nM,"COc1c([C@H]2[C@H](C(=O)Nc3cnnc(N4C(=O)CN(C)C[C@H]4C)c3)O[C@@](C)(C(F)(F)F)[C@H]2C)ccc(F)c1F [Compound 384, (2R,3S,4S,5R)-3-(3,4-difluoro-2-methoxyphenyl)-N-(6-((R)-2,4-dimethyl-6-oxopiperazin-1-yl)pyridazin-4-yl)-4,5-dimethyl-5-(trifluoromethyl)tetrahydrofuran-2-carboxamide]"
6,< 10 nM,"COc1c([C@H]2[C@H](C(=O)Nc3ccnc(CCO)c3)O[C@@](C)(C(F)(F)F)[C@H]2C)ccc(F)c1F [Compound 385, (2R,3S,4S,5R)-3-(3,4-difluoro-2-methoxyphenyl)-N-(2-(2-hydroxyethyl)pyridin-4-yl)-4,5-dimethyl-5-(trifluoromethyl)tetrahydrofuran-2-carboxamide]"
7,< 10 nM,"COc1c([C@H]2[C@H](C(=O)Nc3ccnc(CN4CCC[C@H]4CO)c3)O[C@@](C)(C(F)(F)F)[C@H]2C)ccc(F)c1F [Compound 386, (2R,3S,4S,5R)-3-(3,4-difluoro-2-methoxyphenyl)-N-(2-(((S)-2-(hydroxymethyl)pyrrolidin-1-yl)methyl)pyridin-4-yl)-4,5-dimethyl-5-(trifluoromethyl)tetrahydrofuran-2-carboxamide]"
